According to publication PMC6743424, “Phenolic acid phenethylesters and their corresponding ketones: Inhibition of 5‐lipoxygenase and stability in human blood and HepaRG cells” (Pharmacology Research & Perspectives, 2019):
Like-named read-outs stand apart in the source and are kept apart here.

Key:
5‐LO [1] = molecular target: T1, 5‐LO (Homo sapiens, UniProt P09917); design: endogenous in cells; host or cells: human polymorphonuclear leukocytes isolated from heparinized blood; method as in PMID 22347509, PMID 28680195; settings: read-out: IC50 of LT biosynthesis in whole blood; cited from earlier work
T1 sequence (P09917 1-674): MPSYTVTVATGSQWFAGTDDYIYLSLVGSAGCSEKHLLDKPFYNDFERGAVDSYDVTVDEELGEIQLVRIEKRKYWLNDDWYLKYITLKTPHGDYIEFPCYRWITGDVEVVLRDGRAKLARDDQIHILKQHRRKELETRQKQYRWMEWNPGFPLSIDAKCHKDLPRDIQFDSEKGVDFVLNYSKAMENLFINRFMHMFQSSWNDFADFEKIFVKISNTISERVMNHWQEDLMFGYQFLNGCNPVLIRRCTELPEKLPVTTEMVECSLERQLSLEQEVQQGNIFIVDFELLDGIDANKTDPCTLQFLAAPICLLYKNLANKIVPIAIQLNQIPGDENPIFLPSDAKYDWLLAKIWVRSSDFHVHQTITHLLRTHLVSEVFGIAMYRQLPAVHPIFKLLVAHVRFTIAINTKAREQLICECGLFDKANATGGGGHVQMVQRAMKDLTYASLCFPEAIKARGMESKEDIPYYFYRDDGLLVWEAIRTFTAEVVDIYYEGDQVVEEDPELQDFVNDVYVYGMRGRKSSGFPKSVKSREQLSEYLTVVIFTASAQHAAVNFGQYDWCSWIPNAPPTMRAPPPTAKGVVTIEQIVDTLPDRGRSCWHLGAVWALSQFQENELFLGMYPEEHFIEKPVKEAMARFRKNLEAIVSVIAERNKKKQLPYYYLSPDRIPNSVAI

5‐LO [2] = molecular target: T1, 5‐LO; design: endogenous in cells; host or cells: human polymorphonuclear leukocytes isolated from heparinized blood; method as in PMID 22347509, PMID 28680195; settings: read-out: IC50 of LT biosynthesis in isolated human neutrophils; cited from earlier work
[3] = Stability of inhibitory activity after incubation in whole blood; type: in vitro ADME, human; settings: 3 μmol/L in whole blood up to 240 minutes before zymosan; LTB4
Description: Figure 4 Stability of the test compounds for the inhibition of the biosynthesis of 5‐LO products following incubation in plasma or in whole blood. (A) Test compounds were incubated (30 µmol/L) in human plasma for the indicated times at 37°C. Plasma (50 µL) containing the test compounds was then added to 450 µL of PMNL (10^7 cells/mL) which were then stimulated with 1 μmol/L of thapsigargin for 15 minutes at 37°C. The stimulation was then stopped, samples were processed, and 5‐LO products were measured using RP‐HPLC. (B) Whole blood was incubated in the presence of 3 μmol/L of test compounds or with their diluent (control, DMSO 0.1%) for the indicated times and was then stimulated with opsonized zymosan (4 mg/mL) for 30 minutes at 37°C. Blood was then centrifuged and plasma was collected and added to 1.2 mL of CH3OH:CH3CN (1:1). Samples were processed for analysis using RP‐HPLC for LTB4 quantification. All data are expressed as means ± SEM of at least three independent experiments. *Difference from time = 0, as determined using One‐way ANOVA with Dunnett's multiple comparison test (P < .05)

HepaRG cells = test: Residual inhibition of 5‐LO product biosynthesis in blood after incubation with HepaRG cells; type: in vitro ADME, human; settings: for Inhibitory activity against 5‐LO product biosynthesis after incubation with HepaRG cells: 50 µmol/L with HepaRG cells, after 60 minutes, medium added to blood, zymosan, LTB4
Description: Differentiated HepaRG cells, plated in 24 well plates, were washed with hepatocyte suspension medium (Williams E‐medium without phenol red, supplemented with 2 mmol/L Glutamax and […] HEPES) before addition of hepatocyte suspension medium (250 µL/well) containing (30 or 50 µmol/L) of the test compounds or their diluent. Cells were then incubated for 7.5, 15, 30, 60 or 90 minutes at 37°C after which the medium was removed.
In experiments where the inhibitory capacity of test compounds was to be determined after incubation with HepaRG cells, 125 µL of the hepatocyte suspension medium containing test compounds that had been collected at different time points from HepaRG cultures was added to 1 mL of heparinized blood. After a 5 minutes of preincubation, blood was then stimulated with opsonized zymosan and processed for HPLC analysis of 5‐LO metabolites as described above.
Figure 6 Stability of the test compounds for the inhibition of the biosynthesis of 5‐LO products following incubation with HepaRG cells. HepaRG cells were incubated with […] of hepatocyte suspension medium containing 50 µmol/L of test compounds for the indicated times at 37°C. Hepatocyte suspension medium (125 µL) was then removed and added to 1 mL of blood that was then incubated for 5 minutes and then stimulated with opsonized zymosan (4 mg/mL) for 30 minutes at 37°C. Blood was then centrifuged and plasma was collected and added to 1.2 mL of CH3OH:CH3CN (1:1). Samples were processed for analysis using RP‐HPLC for LTB4 quantification. Data are expressed as means ± SEM of at least three independent experiments. *Difference from time = 0, as determined using One‐way ANOVA with Dunnett's multiple comparison test (P < .05)

[4] = design: method as in PMID 17394337, PMID 15358316, PMID 19544289; settings: carboxylesterase; cited from earlier work
[5] = design: method as in PMID 17394337, PMID 15358316, PMID 19544289; settings: oral administration to rats; cited from earlier work

Row | SMILES | Inhibitory activity against 5‐LO product biosynthesis after incubation with HepaRG cells (HepaRG cells) | Inhibitory activity retained after incubation in HepaRG cultures (HepaRG cells; after up to one hour of incubation) | IC50 (5‐LO [1]) | IC50 (5‐LO [2]) | Stability of inhibitory activity after incubation in whole blood [3] | Stability in rat plasma [4] | Major metabolite in urine [5]
1 | O=C(/C=C/c1ccc(O)c(O)c1)OCCc1ccccc1 [CAPE (2), caffeic acid phenethyl ester, reference compound] | lost all their inhibitory activity | – | 1800 nM | 500 nM | complete loss of inhibitory activity after 240 minutes | rapidly hydrolyzed to caffeic acid | caffeic acid
2 | COc1cc(/C=C/C(=O)CCc2ccccc2)cc(OC)c1O [compound 10, sinapic acid phenethyl ketone] | maintained significant inhibition | 50% | – | – | near complete retention of inhibitory activity | – | –
3 | O=C(/C=C/c1cc(O)ccc1O)OCCc1ccccc1 [compound 5] | lost all their inhibitory activity | – | – | – | – | – | –

More lines, main results first:

Row | Inhibitory activity against 5‐LO product biosynthesis after incubation with HepaRG cells (HepaRG cells) | Inhibitory activity retained after incubation in HepaRG cultures (HepaRG cells; after up to one hour of incubation) | SMILES | IC50 (5‐LO [1]) | IC50 (5‐LO [2]) | Stability of inhibitory activity after incubation in whole blood [3] | Stability in rat plasma [4] | Major metabolite in urine [5]
4 | lost all their inhibitory activity | – | O=C(/C=C/c1ccc(O)c(O)c1)CCCc1ccccc1 [compound 7] | – | – | complete loss of inhibitory activity after 240 minutes | – | –
5 | lost all their inhibitory activity | – | O=C(/C=C/c1cc(O)ccc1O)CCc1ccccc1 [compound 8] | – | – | – | – | –
